The values below come from US20250325688A1, “ANTIBODY-DRUG CONJUGATE CONTAINING PROTEIN DEGRADATION AGENT BIOACTIVE COMPOUND, METHOD FOR PREPARING SAME, AND USE THEREOF” (Medilink Therapeutics (Suzhou) Co., Ltd., priority 2022, published 2025).

Read-outs that look alike come from different tables or passages of the source.

The subject of one series is IKZF1/3. Conditions: clinical results shown at AACR April 2022; cited from earlier work.
The next series deals with N87 cells. The experiment in a line: Inhibitory activity of payloads on cell proliferation (Cell titer glo). Type of series: cell-based. The conditions noted are these: for EC50: 4 days culture. The method, then:
(§1) The cells were incubated in an incubator at 37° C. overnight. The payload to be tested was dissolved in DMSO, and the resulting solution was aliquoted and cryopreserved at −80° C. The next day, the payload to be tested was subjected to 4-fold dilution to a maximum concentration of 10000 nM for 10 points using the respective complete medium. 100 µL of the diluted drug was added to the cell culture wells (2 replicates per well). After the cells were cultured at 37° C. for 4 days, 50 μL of Cell titer glo substrate was added to each well. After the cells were incubated for 5 min, the fluorescence values were measured.

A further series has as its system MCF7 cells. The series is described as above. It is filed as cell-based. The conditions noted are these: for EC50: 4 days culture. The method, then: as §1
The test system of a further series is NUGC4 cells. The series is described as above. It is filed as cell-based. The conditions noted are these: for EC50: 4 days culture. The method, then: as §1
Series [1] has as its target T1, B7H3 on tumor cells (MCF-7, A549, PC-3) (human) (UniProt Q5ZPR3).
T1 sequence (looked up): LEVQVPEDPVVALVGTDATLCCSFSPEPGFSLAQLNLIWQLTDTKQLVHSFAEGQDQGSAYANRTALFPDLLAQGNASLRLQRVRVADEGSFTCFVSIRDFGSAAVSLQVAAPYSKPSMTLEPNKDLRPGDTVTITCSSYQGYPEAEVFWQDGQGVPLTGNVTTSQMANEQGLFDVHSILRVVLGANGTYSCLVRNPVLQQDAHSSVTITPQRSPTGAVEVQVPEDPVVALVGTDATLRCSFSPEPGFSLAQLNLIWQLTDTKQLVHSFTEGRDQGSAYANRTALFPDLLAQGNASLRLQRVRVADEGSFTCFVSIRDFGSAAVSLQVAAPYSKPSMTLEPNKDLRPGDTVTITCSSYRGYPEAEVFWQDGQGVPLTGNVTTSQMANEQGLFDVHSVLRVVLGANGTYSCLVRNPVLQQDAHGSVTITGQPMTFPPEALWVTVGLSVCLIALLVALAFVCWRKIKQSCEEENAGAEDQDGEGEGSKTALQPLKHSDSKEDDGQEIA
Kind of series: flow cytometry on A549 tumor cells.

The target in series [2] is T2, human B7H3-4IgG-his (human) (UniProt Q5ZPR3).
T2 sequence: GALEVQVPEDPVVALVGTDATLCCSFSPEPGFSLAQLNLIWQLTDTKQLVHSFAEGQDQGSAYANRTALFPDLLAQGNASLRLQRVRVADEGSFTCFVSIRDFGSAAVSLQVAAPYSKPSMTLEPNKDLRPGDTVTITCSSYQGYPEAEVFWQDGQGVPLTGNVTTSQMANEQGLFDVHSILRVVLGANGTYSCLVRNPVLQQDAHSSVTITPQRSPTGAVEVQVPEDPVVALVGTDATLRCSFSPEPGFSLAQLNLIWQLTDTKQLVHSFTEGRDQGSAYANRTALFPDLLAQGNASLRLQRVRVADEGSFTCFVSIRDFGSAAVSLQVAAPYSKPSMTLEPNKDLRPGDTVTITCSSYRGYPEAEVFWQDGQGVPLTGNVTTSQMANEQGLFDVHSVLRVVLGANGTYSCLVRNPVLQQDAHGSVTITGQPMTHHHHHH
Kind of series: ELISA, coated human B7H3-4IgG-his, anti-human Fc-HRP detection.

Series [3] addresses T2, human B7H3-4IgG-his (human). The description is as above. This is another data set of the same source.
In series [4] the target is T1, B7H3 on tumor cells (MCF-7, A549, PC-3) (human). Kind of series: flow cytometry on MCF-7 tumor cells.
Series [5] shares this target. The experiment in a line: flow cytometry on MCF-7 tumor cells. This is another data set of the same source.
For series [6] the target is unchanged. The experiment in a line: flow cytometry on PC-3 tumor cells.
Series [7] has as its target monkey B7H3-4IgG-his (monkey). Kind of series: ELISA, coated monkey B7H3-4IgG-his, anti-human Fc-HRP detection.
Series [8] deals with T1, B7H3 on tumor cells (MCF-7, A549, PC-3) (human). The experiment in a line: flow cytometry on A549 tumor cells. The source holds these as a separate data set.
The target in series [9] is monkey B7H3-4IgG-his (monkey). The experiment in a line: ELISA, coated monkey B7H3-4IgG-his, anti-human Fc-HRP detection. The source holds these as a separate data set.

On to `O=C1CC[C@H](N2C(=O)c3cccc4c(Cc5ccc(CN6CCOCC6)cc5)ccc2c34)C(=O)N1` [CFT7455], for which, in the series on IKZF1/3, the “dose-limiting toxicity in the clinic” value is listed as “decreased neutrophil was dose-limiting”.
As to `CNCCOCCc1ccc(NC(=O)NCc2ccc3c(c2)CN(C2CCC(=O)NC2=O)C3=O)cc1Cl` (stereo not drawn) [Control compound 1], the EC50 with N87 cells (96 h) is 572 nM; in the series with MCF7 cells (Homo sapiens, MCF7, 96 h), 983 nM; with NUGC4 cells (Homo sapiens, NUGC-4, 96 h) it was 345 nM.
Consider `CN(CCCc1ccc(NC(=O)NCc2ccc3c(c2)CN(C2CCC(=O)NC2=O)C3=O)cc1Cl)C(=O)CO` (stereo not drawn) [PL-1, N-(3-(2-chloro-4-(3-((2-(2,6-dioxopiperidin-3-yl)-1-oxoisoindolin-5-yl)methyl)ureido)phenyl)propyl)-2-hydroxy-N-methylacetamide], for which the “inhibitory activity on the proliferation of N87 cells (in words)” value in the series on N87 cells was “significantly superior to that of control compound 1”. The EC50 was determined as 14.3 nM in the series with N87 cells (96 h) and 62.1 nM in the series with MCF7 cells (Homo sapiens, MCF7, 96 h). The “inhibitory activity on the proliferation of MCF7 cells (in words)” value with MCF7 cells was “significantly superior to that of control compound 1”.
In the series on N87 cells (96 h), `CN(CCCc1ccc(C(F)(F)C(=O)NCc2ccc3c(c2)CN(C2CCC(=O)NC2=O)C3=O)cc1Cl)C(=O)CO` (stereo not drawn) [PL-2] registered an EC50 of 193 nM.
Regarding `CN(CCCc1ccc(NC(=O)NCc2ccc3c(c2)C(=O)N(C2CCC(=O)NC2=O)C3=O)cc1Cl)C(=O)CO` (stereo not drawn) [PL-3, N-(3-(2-chloro-4-(3-((2-(2,6-dioxopiperidin-3-yl)-1,3-dioxoisoindol-5-yl)methyl)ureido)phenyl)propyl)-2-hydroxy-N-methylacetamide], in the series on N87 cells (96 h), the half-maximal effective concentration (EC50) is 851 nM.
For `CN(CCOCCc1ccc(NC(=O)NCc2ccc3c(c2)CN(C2CCC(=O)NC2=O)C3=O)cc1Cl)C(=O)CO` (stereo not drawn) [PL-4, N-(2-chloro-4-(3-(2-(2,6-dioxopiperidin-3-yl)-1-oxoisoindolin-5-methyl)ureido)phenethoxy)ethyl-2-hydroxy-N-methylacetamide], in the series on N87 cells, the “inhibitory activity on the proliferation of N87 cells (in words)” value is “significantly superior to that of control compound 1” and the EC50 was 36.1 nM. Also, in the series on MCF7 cells, the “inhibitory activity on the proliferation of MCF7 cells (in words)” value is “significantly superior to that of control compound 1” and the midpoint of the response, the EC50, lay at 44.7 nM. Besides, in the series with NUGC4 cells, the “inhibitory activity on the proliferation of NUGC4 cells (in words)” value is “significantly superior to that of control compound 1” and the midpoint of the response, the EC50, lay at 43.2 nM.
As to `CN(CCCc1ccc(NC(=O)NCc2ccc3c(c2)CN(C2CCC(=O)NC2=O)C3=O)cc1)C(=O)CO` (stereo not drawn) [PL-5, N-(3-(4-(3-(2-(2,6-dioxopiperidin-3-yl)-1-oxoisoindolin-5-methyl)ureido)phenyl)propyl)-2-hydroxy-N-methylacetamide], the concentration for a half-maximal effect (EC50) was determined as 1590 nM in the series with N87 cells (96 h); 228 nM in the series with MCF7 cells (Homo sapiens, MCF7, 96 h); 502 nM in the series on NUGC4 cells (Homo sapiens, NUGC-4, 96 h).

B1: B7H3-C1 antibody (antibody, INN chains, looked up, V domains shown)
VH: QVQLVQSGAEVKKPGSSVKVSCKASGYTFTNYVMHWVRQAPGQGLEWMGYINPYNDDVKYNEKFKGRVTITADESTSTAYMELSSLRSEDTAVYYCARWGYYGSPLYYFDYWGQGTLVTVSS
VL: EIVLTQSPATLSLSPGERATLSCRASSRLIYMHWYQQKPGQAPRPLIYATSNLASGIPARFSGSGSGTDFTLTISSLEPEDFAVYYCQQWNSNPPTFGQGTKVEIK
B1: the half-maximal effective concentration (EC50) in [1] was found to be 1.86 nM; in [2] it was 0.0519 nM; in series [3], 0.048 nM; in [4], 1.36 nM; in series [5] it was 1.71 nM; in series [6] it was 0.618 nM. Further, the EC50 came to 0.167 nM in [7], 1.05 nM in series [8] and 3.92 nM in series [9]. Besides, the Maximum MFI in series [1] was found to be 8270; in series [4], 63200; in series [5], 84000; in [6] it was 6440; in series [8] it was 48000.
